Among the data in patent US7528135B2, “Pyridine derivatives as H3 antagonists” (Hoffmann-La Roche Inc., priority 2004, dated 2009) are Ki values, retold here.

Molecules are shown by their SMILES.

The target of this assay is T1, histamine 3 receptor (H3R) (Homo sapiens, UniProt Q9Y5N1).
T1 construct: expressed in transfected cells; host or cells: CHO cells (HR3-CHO cell line), membrane preparation
T1 sequence (Q9Y5N1 whole entry): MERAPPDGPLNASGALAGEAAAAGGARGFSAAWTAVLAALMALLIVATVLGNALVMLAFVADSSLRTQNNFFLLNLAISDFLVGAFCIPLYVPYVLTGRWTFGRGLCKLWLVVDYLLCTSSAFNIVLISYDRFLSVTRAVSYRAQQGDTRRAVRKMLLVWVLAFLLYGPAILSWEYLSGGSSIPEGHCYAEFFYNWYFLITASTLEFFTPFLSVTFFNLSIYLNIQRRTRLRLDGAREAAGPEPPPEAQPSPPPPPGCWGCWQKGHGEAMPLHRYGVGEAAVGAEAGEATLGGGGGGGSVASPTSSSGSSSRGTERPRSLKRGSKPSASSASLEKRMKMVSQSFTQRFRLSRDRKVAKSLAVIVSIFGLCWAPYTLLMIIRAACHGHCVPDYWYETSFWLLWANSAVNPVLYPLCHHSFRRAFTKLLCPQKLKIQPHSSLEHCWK
The experiment in a line: Binding assay with 3H-(R)α-methylhistamine (competition binding, human HR3-CHO membranes). Particulars: competition against 3H(R)α-Methylhistamine (1 nM = Kd), membrane of the human HR3-CHO cell line; Ki calculated from IC50 by Cheng-Prusoff. The procedure: Binding Assay with ^3H-(R)α-methylhistamine
Saturation binding experiments were performed using HR3-CHO membranes prepared as described in Takahashi, K, Tokita, S., Kotani, H. (2003) J. Pharmacol. Exp. Therapeutics 307, 213-218.
An appropriate amount of membrane (60 to 80 μg protein/well) was incubated with increasing concentrations of ^3H(R)α-Methylhistamine di-hydrochloride (0.10 to 10 nM). Non specific binding was determined using a 200 fold excess of cold (R)α-Methylhistamine dihydrobromide (500 nM final concentration). The incubation was carried out at room temperature (in deep-well plates shaking for three hours). The final volume in each well was 250 μl. The incubation was followed by rapid filtration on GF/B filters (pre-soaked with 100 μl of 0.5% PEI in Tris 50 mM shaking at 200 rpm for two hours). The filtration was made using a cell-harvester and the filter plates were then washed five times with ice cold washing buffer containing 0.5 M NaCl. After harvesting, the plates were dried at 55° C. for 60 min, then we added scintillation fluid (Microscint 40, 40 microl in each well) and the amount of radioactivity on the filter was determined in Packard top-counter after shaking the plates for two hours at 200 rpm at room temperature.
Binding Buffer: 50 mM Tris-HCl pH 7.4 and 5 mM MgCl2x6H2O pH 7.4. Washing Buffer: 50 mM Tris-HCl pH 7.4 and 5 mM MgCl2x6H2O and 0.5 M NaCl pH 7.4.
Indirect measurement of affinity of H3R inverse agonists: twelve increasing concentrations (ranging from 10 μM to 0.3 nM) of the selected compounds were always tested in competition binding experiments using membrane of the human HR3-CHO cell line. An appropriate amount of protein, e.g. approximately 500 cpm binding of RAMH at Kd, were incubated for 1 hour at room temperature in 250 μl final volume in 96-well plates in presence of ^3H(R)α-Methylhistamine (1 nM final concentration=Kd). […]
All compounds were tested at a single concentration in duplicates. […] Ki's were calculated from IC50 based on Cheng-Prusoff equation (Cheng, Y, Prusoff, W H (1973) Biochem Pharmacol 22, 3099-3108).
As to `COc1ccc(CC(=O)Nc2ccc(N3CCN(C4CCCC4)CC3)nc2)cc1OC` [Example 53, N-[6-(4-cyclopentyl-piperazin-1-yl)-pyridin-3-yl]-2-(3,4-dimethoxy-phenyl)-acetamide], the inhibition constant (Ki) (in general, the equilibrium dissociation constant of an inhibitor or competing ligand from its target) was 40 nM.
For `CN(C)S(=O)(=O)Nc1ccc(N2CCN(C3CCCC3)CC2)nc1` [Example 34, N-[6-(4-cyclopentyl-piperazin-1-yl)-pyridin-3-yl]-diemethylaminosulfonamide] the value was 81 nM; for `CCN1CCN(c2ccc(NC(=O)NCc3ccccc3)cn2)CC1` [Example 3, 1-benzyl-3-[6-(4-ethyl-piperazin-1-yl)-pyridin-3-yl]-urea], 39 nM.
